Experimental data from PubChem BioAssay (NCI).
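Briefly, cells in 96-well plates were exposed to five compound concentrations for 48 h, and endpoints were estimated by linear interpolation. TGI: concentration producing complete growth inhibition.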

Tests used:
Experiment in all cases: NCI anticancer screen, dose series, 48 h
786-0 renal = test system: 786-0 renal
A498 renal = test system: A498 renal
A549 NSCLC = test system: A549 NSCLC
ACHN renal = test system: ACHN renal
BT-549 breast = test system: BT-549 breast
CAKI-1 renal = test system: CAKI-1 renal
CCRF-CEM leukemia = test system: CCRF-CEM leukemia
COLO 205 colon = test system: COLO 205 colon
DU-145 prostate = test system: DU-145 prostate
EKVX NSCLC = test system: EKVX NSCLC
HCC-2998 colon = test system: HCC-2998 colon
HCT-116 colon = test system: HCT-116 colon
HCT-15 colon = test system: HCT-15 colon
HL-60(TB) leukemia = test system: HL-60(TB) leukemia
HOP-62 NSCLC = test system: HOP-62 NSCLC
HOP-92 NSCLC = test system: HOP-92 NSCLC
HS 578T breast = test system: HS 578T breast
HT29 colon = test system: HT29 colon
IGROV1 ovarian = test system: IGROV1 ovarian
K-562 leukemia = test system: K-562 leukemia
KM12 colon = test system: KM12 colon
M14 melanoma = test system: M14 melanoma
MALME-3M melanoma = test system: MALME-3M melanoma
MCF7 breast = test system: MCF7 breast
MDA-MB-231 breast = test system: MDA-MB-231 breast
MDA-MB-435 = test system: MDA-MB-435
MDA-N = test system: MDA-N
NCI-H226 lung = test system: NCI-H226 lung
NCI-H23 lung = test system: NCI-H23 lung
NCI-H460 lung = test system: NCI-H460 lung
NCI-H522 lung = test system: NCI-H522 lung
NCI/ADR-RES ovarian = test system: NCI/ADR-RES ovarian
OVCAR-3 ovarian = test system: OVCAR-3 ovarian
OVCAR-4 ovarian = test system: OVCAR-4 ovarian
OVCAR-5 ovarian = test system: OVCAR-5 ovarian
OVCAR-8 ovarian = test system: OVCAR-8 ovarian
PC-3 prostate = test system: PC-3 prostate
RPMI-8226 leukemia = test system: RPMI-8226 leukemia
RXF 393 renal = test system: RXF 393 renal
SF-268 CNS = test system: SF-268 CNS
SF-295 CNS = test system: SF-295 CNS
SF-539 CNS = test system: SF-539 CNS
SK-MEL-2 melanoma = test system: SK-MEL-2 melanoma
SK-MEL-28 melanoma = test system: SK-MEL-28 melanoma
SK-MEL-5 melanoma = test system: SK-MEL-5 melanoma
SK-OV-3 ovarian = test system: SK-OV-3 ovarian
SN12C renal = test system: SN12C renal
SNB-19 CNS = test system: SNB-19 CNS
SNB-75 CNS = test system: SNB-75 CNS
SR leukemia = test system: SR leukemia
SW-620 colon = test system: SW-620 colon
T-47D breast = test system: T-47D breast
U251 CNS = test system: U251 CNS
UACC-62 melanoma = test system: UACC-62 melanoma
UO-31 renal = test system: UO-31 renal
LOX IMVI melanoma = test system: LOX IMVI melanoma
MOLT-4 leukemia = test system: MOLT-4 leukemia
TK-10 renal = test system: TK-10 renal
UACC-257 melanoma = test system: UACC-257 melanoma
KM20L2 colon = test system: KM20L2 colon

`c1ccc(/C(=N/Nc2ccccn2)c2ncccn2)cc1` was tested, and the TGI (786-0 renal) was > 100 µM, the TGI (A498 renal) was > 100 µM and the TGI (A549 NSCLC) was > 76.9 µM. The TGI (ACHN renal) was 13.3 µM, the TGI (BT-549 breast) was > 100 µM and the TGI (CAKI-1 renal) was 5.69 µM. The TGI (CCRF-CEM leukemia) was > 100 µM, the TGI (COLO 205 colon) was > 71.2 µM and the TGI (DU-145 prostate) was > 100 µM. The TGI (EKVX NSCLC) was 5.73 µM, the TGI (HCC-2998 colon) was > 100 µM and the TGI (HCT-116 colon) was > 100 µM. For the same molecule, the TGI (HCT-15 colon) was > 100 µM, the TGI (HL-60(TB) leukemia) was > 100 µM and the TGI (HOP-62 NSCLC) was > 42.7 µM. The TGI (HOP-92 NSCLC) was > 34.5 µM, the TGI (HS 578T breast) was > 44.9 µM and the TGI (HT29 colon) was > 47.4 µM. The TGI (IGROV1 ovarian) was > 21 µM, the TGI (K-562 leukemia) was > 39.8 µM and the TGI (KM12 colon) was > 53.8 µM. For the same molecule, the TGI (M14 melanoma) was 6.93 µM, the TGI (MALME-3M melanoma) was 59.8 µM and the TGI (MCF7 breast) was > 100 µM. The TGI (MDA-MB-231 breast) was > 100 µM, the TGI (MDA-MB-435) was > 100 µM and the TGI (MDA-N) was > 100 µM. For the same molecule, the TGI (NCI-H226 lung) was 0.956 µM, the TGI (NCI-H23 lung) was > 37.6 µM and the TGI (NCI-H460 lung) was > 57.8 µM. For the same molecule, the TGI (NCI-H522 lung) was 0.679 µM, the TGI (NCI/ADR-RES ovarian) was 4.67 µM and the TGI (OVCAR-3 ovarian) was > 44.3 µM. For the same molecule, the TGI (OVCAR-4 ovarian) was > 100 µM, the TGI (OVCAR-5 ovarian) was > 100 µM and the TGI (OVCAR-8 ovarian) was 3.43 µM. The TGI (PC-3 prostate) was > 100 µM, the TGI (RPMI-8226 leukemia) was > 62.9 µM and the TGI (RXF 393 renal) was > 100 µM. For the same molecule, the TGI (SF-268 CNS) was 5.06 µM, the TGI (SF-295 CNS) was > 44.6 µM and the TGI (SF-539 CNS) was 46 µM. The TGI (SK-MEL-2 melanoma) was > 100 µM, the TGI (SK-MEL-28 melanoma) was > 78.1 µM and the TGI (SK-MEL-5 melanoma) was 26.9 µM. For the same molecule, the TGI (SK-OV-3 ovarian) was > 28.7 µM, the TGI (SN12C renal) was > 100 µM and the TGI (SNB-19 CNS) was > 100 µM. For the same molecule, the TGI (SNB-75 CNS) was 16.2 µM, the TGI (SR leukemia) was > 27.5 µM and the TGI (SW-620 colon) was > 20.2 µM. For the same molecule, the TGI (T-47D breast) was > 100 µM, the TGI (U251 CNS) was > 51.6 µM and the TGI (UACC-62 melanoma) was 12.2 µM. For the same molecule, the TGI (UO-31 renal) was 6.27 µM.

With `O=C(CSc1n[nH]c(=O)[nH]c1=O)NNC(=O)c1cccc2nc3ccccc3nc12` the TGI (786-0 renal) was > 100 µM, the TGI (A498 renal) was > 100 µM and the TGI (A549 NSCLC) was > 100 µM. The TGI (ACHN renal) was > 100 µM, the TGI (BT-549 breast) was 83.7 µM and the TGI (CAKI-1 renal) was > 100 µM. For the same molecule, the TGI (CCRF-CEM leukemia) was > 100 µM, the TGI (COLO 205 colon) was > 100 µM and the TGI (DU-145 prostate) was > 100 µM. The TGI (EKVX NSCLC) was > 100 µM, the TGI (HCC-2998 colon) was > 100 µM and the TGI (HCT-116 colon) was > 100 µM. The TGI (HCT-15 colon) was > 100 µM, the TGI (HL-60(TB) leukemia) was > 100 µM and the TGI (HOP-62 NSCLC) was > 100 µM. For the same molecule, the TGI (HOP-92 NSCLC) was > 100 µM, the TGI (HS 578T breast) was > 100 µM and the TGI (HT29 colon) was > 100 µM. The TGI (IGROV1 ovarian) was > 100 µM, the TGI (K-562 leukemia) was > 100 µM and the TGI (KM12 colon) was > 100 µM. The TGI (LOX IMVI melanoma) was > 100 µM, the TGI (M14 melanoma) was > 100 µM and the TGI (MALME-3M melanoma) was 87.8 µM. For the same molecule, the TGI (MCF7 breast) was > 100 µM, the TGI (MDA-MB-231 breast) was > 100 µM and the TGI (MDA-MB-435) was > 100 µM. For the same molecule, the TGI (MDA-N) was 97.5 µM, the TGI (MOLT-4 leukemia) was > 100 µM and the TGI (NCI-H226 lung) was > 100 µM. For the same molecule, the TGI (NCI-H23 lung) was > 100 µM, the TGI (NCI-H460 lung) was > 100 µM and the TGI (NCI/ADR-RES ovarian) was > 100 µM. The TGI (OVCAR-3 ovarian) was > 100 µM, the TGI (OVCAR-4 ovarian) was > 100 µM and the TGI (OVCAR-5 ovarian) was > 100 µM. For the same molecule, the TGI (OVCAR-8 ovarian) was > 100 µM, the TGI (PC-3 prostate) was > 100 µM and the TGI (RPMI-8226 leukemia) was > 100 µM. The TGI (RXF 393 renal) was > 100 µM, the TGI (SF-268 CNS) was > 100 µM and the TGI (SF-295 CNS) was > 100 µM. The TGI (SF-539 CNS) was > 100 µM, the TGI (SK-MEL-2 melanoma) was > 100 µM and the TGI (SK-MEL-28 melanoma) was > 100 µM. The TGI (SK-MEL-5 melanoma) was 45 µM, the TGI (SK-OV-3 ovarian) was > 100 µM and the TGI (SN12C renal) was > 100 µM. For the same molecule, the TGI (SNB-19 CNS) was > 100 µM, the TGI (SR leukemia) was > 100 µM and the TGI (SW-620 colon) was > 100 µM. For the same molecule, the TGI (T-47D breast) was > 100 µM, the TGI (TK-10 renal) was > 100 µM and the TGI (U251 CNS) was > 100 µM. The TGI (UACC-257 melanoma) was > 100 µM and the TGI (UACC-62 melanoma) was > 100 µM.

`O=C(N/N=C/c1cc(Br)cc(Br)c1[O-])c1ccccc1O.O=C(N/N=C/c1cc(Br)cc(Br)c1[O-])c1ccccc1O.[Fe+2]` gave a TGI (A549 NSCLC) of 29.3 µM, a TGI (ACHN renal) of 21.1 µM and a TGI (CAKI-1 renal) of 34.5 µM. The TGI (CCRF-CEM leukemia) was 24.9 µM, the TGI (COLO 205 colon) was 35.8 µM and the TGI (EKVX NSCLC) was 50.3 µM. It also gave a TGI (HCC-2998 colon) of 12.5 µM, a TGI (HCT-116 colon) of 10.6 µM and a TGI (HCT-15 colon) of 13.8 µM. For the same molecule, the TGI (HL-60(TB) leukemia) was 11.2 µM, the TGI (HOP-62 NSCLC) was 8.53 µM and the TGI (HOP-92 NSCLC) was 6.89 µM. The TGI (HT29 colon) was 19.7 µM, the TGI (IGROV1 ovarian) was 41.4 µM and the TGI (KM12 colon) was 23.9 µM. It also gave a TGI (KM20L2 colon) of 17.4 µM, a TGI (LOX IMVI melanoma) of 22.7 µM and a TGI (M14 melanoma) of 14.5 µM. For the same molecule, the TGI (MALME-3M melanoma) was 37.5 µM, the TGI (MOLT-4 leukemia) was 19.8 µM and the TGI (NCI-H226 lung) was 7.41 µM. It also gave a TGI (NCI-H23 lung) of 9.66 µM, a TGI (NCI-H460 lung) of 22.2 µM and a TGI (NCI-H522 lung) of 11.4 µM. It also gave a TGI (OVCAR-3 ovarian) of 25.8 µM, a TGI (OVCAR-4 ovarian) of 18.4 µM and a TGI (OVCAR-5 ovarian) of 15.8 µM. For the same molecule, the TGI (OVCAR-8 ovarian) was 36.1 µM, the TGI (RXF 393 renal) was 20.6 µM and the TGI (SF-268 CNS) was 38.9 µM. It also gave a TGI (SF-295 CNS) of 15.8 µM, a TGI (SF-539 CNS) of 14.1 µM and a TGI (SK-MEL-2 melanoma) of 21.4 µM. For the same molecule, the TGI (SK-MEL-28 melanoma) was 21.6 µM, the TGI (SK-MEL-5 melanoma) was 23.4 µM and the TGI (SK-OV-3 ovarian) was 13.9 µM. The TGI (SNB-19 CNS) was 20.4 µM, the TGI (SNB-75 CNS) was 27.7 µM and the TGI (SW-620 colon) was 19.7 µM. For the same molecule, the TGI (TK-10 renal) was 28.5 µM, the TGI (U251 CNS) was 7.88 µM and the TGI (UACC-62 melanoma) was 10.5 µM. It also gave a TGI (UO-31 renal) of 25.3 µM.
